In patent US20240158446A1, “CYCLIC COMPOUND HAVING SELECTIVE INHIBITORY ACTION ON KRAS OVER HRAS AND NRAS” (CHUGAI SEIYAKU KABUSHIKI KAISHA, priority 2021, published 2024):
pKd: −log10 of the molar value.

Assays:
[1] = biological target: GDP-bound KRAS wild-type protein (Homo sapiens, UniProt P01116); experiment: Binding to KRAS by surface plasmon resonance (SPR), Single Cycle Kinetics; settings: SPR, Single Cycle Kinetics, GDP-bound KRAS wild-type protein; read-out: KRAS KD
[2] = biological target: GDP-bound NRAS wild-type protein (Homo sapiens, UniProt P01111); experiment: Binding to NRAS by surface plasmon resonance (SPR), Single Cycle Kinetics; settings: ratio of KD for GDP-bound NRAS wild-type protein to KD for KRAS, SPR
[3] = biological target: GDP-bound HRAS wild-type protein (Homo sapiens, UniProt P01112); experiment: Binding to HRAS by surface plasmon resonance (SPR), Single Cycle Kinetics; settings: ratio of KD for GDP-bound HRAS wild-type protein to KD for KRAS, SPR
[4] = system: human lung cancer strain NCI-H441; experiment: cells; settings: NCI-H441, 96 h, read-out: NCI-H441 IC50 (nM), NCI-H441 cell proliferation, 4 days, CellTiter-Glo;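 further: cell proliferation inhibition after four days measured by CellTiter-Glo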

Chain of GDP-bound HRAS wild-type protein (P01112 whole entry): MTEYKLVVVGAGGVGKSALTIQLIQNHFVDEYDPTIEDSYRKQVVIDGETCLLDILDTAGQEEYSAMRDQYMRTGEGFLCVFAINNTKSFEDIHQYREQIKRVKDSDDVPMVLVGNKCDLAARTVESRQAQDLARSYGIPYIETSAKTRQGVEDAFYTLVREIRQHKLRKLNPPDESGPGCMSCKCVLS
Chain of GDP-bound NRAS wild-type protein (P01111 whole entry): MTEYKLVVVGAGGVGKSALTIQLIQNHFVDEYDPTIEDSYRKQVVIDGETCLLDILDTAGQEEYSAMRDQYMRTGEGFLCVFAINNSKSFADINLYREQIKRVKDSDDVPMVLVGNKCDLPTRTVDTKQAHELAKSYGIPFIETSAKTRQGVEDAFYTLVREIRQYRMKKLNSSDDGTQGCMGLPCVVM
Chain of GDP-bound KRAS wild-type protein (P01116 whole entry): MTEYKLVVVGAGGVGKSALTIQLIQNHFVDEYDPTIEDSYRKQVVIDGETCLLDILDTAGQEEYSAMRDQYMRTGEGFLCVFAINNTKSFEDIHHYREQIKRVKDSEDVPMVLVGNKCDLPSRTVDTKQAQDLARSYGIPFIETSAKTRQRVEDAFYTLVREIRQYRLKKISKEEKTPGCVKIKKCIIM

| Compound | pKd [1] | NRAS/KRAS (KD ratio) [2] | HRAS/KRAS (KD ratio) [3] | IC50 [4] [nM] |
| --- | --- | --- | --- | --- |
| CCO[C@@H]1C[C@H]2C(=O)NC3(CCC3)C(=O)N(C)[C@@H](C3CCCC3)C(=O)N(C)[C@H](C(=O)N(C)CC)CC(=O)N(C)[C@@H](C3CCC3)C(=O)N[C@@H]([C@@H](C)CC)C(=O)N(C)CC(=O)N(C)[C@H]3C/C=C\CCN(C3=O)[C@@H](Cc3ccc(C(F)(F)F)cc3)C(=O)N(C)CC(=O)N[C@@H](CCc3cc(F)c(C(F)(F)F)c(F)c3)C(=O)N2C1 [PP1996] | 9.92 | A (a compound having 10 or more and less than 20 is denoted as A) | B (a compound having 3 or more and less than 10 is denoted as B) | 15.5 |
| CC[C@H](C)[C@@H]1NC(=O)[C@H](CCOC)N(C)C(=O)C[C@@H](C(=O)N(C)CC)N(C)C(=O)[C@H](C2CCCC2)N(C)C(=O)C2(CC(C)(C)C2)NC(=O)[C@@H]2C[C@H](C)CN2C(=O)[C@H](CCc2ccc(C(F)(F)F)c(OC)c2)NC(=O)CN(C)C(=O)[C@H](Cc2ccc(C(F)(F)F)cc2)N2CC/C=C\C[C@@H](C2=O)N(C)C(=O)CN(C)C1=O [PP1999] | 9.89 | A (a compound having 10 or more and less than 20 is denoted as A) | B (a compound having 3 or more and less than 10 is denoted as B) | 26.6 |
| CCCN(C)C(=O)[C@@H]1CC(=O)N(C)[C@@H](CCOC)C(=O)N[C@@H]([C@@H](C)CC)C(=O)N(C)CC(=O)N(C)[C@H]2C/C=C\CCN(C2=O)[C@@H](Cc2ccc(C(F)(F)F)cc2)C(=O)N(C)CC(=O)N[C@@H](CCc2ccc(C(F)(F)F)c(OC)c2)C(=O)N2C[C@@H](C)C[C@H]2C(=O)NC2(CC(C)(C)C2)C(=O)N(C)[C@@H](C2CCCC2)C(=O)N1C [PP2001] | 9.96 | A (a compound having 10 or more and less than 20 is denoted as A) | A (a compound having 10 or more and less than 20 is denoted as A) | 18.1 |
| CC[C@H](C)[C@@H]1NC(=O)[C@H](C(C)C)N(C)C(=O)C[C@@H](C(=O)N(C)CC)N(C)C(=O)[C@H](C2CCCC2)N(C)C(=O)C2(CC(C)(C)C2)NC(=O)[C@@H]2C[C@H](C)CN2C(=O)[C@H](CCc2ccc(C(F)(F)F)c(OC)c2)NC(=O)CN(C)C(=O)[C@H](Cc2ccc(C(F)(F)F)cc2)N2CC/C=C\C[C@@H](C2=O)N(C)C(=O)CN(C)C1=O [PP2003] | 9.47 | A (a compound having 10 or more and less than 20 is denoted as A) | B (a compound having 3 or more and less than 10 is denoted as B) | 11.3 |
| CC[C@H](C)[C@@H]1NC(=O)[C@H](C(C)C)N(C)C(=O)C[C@@H](C(=O)N(C)C)N(C)C(=O)[C@H](C2CCCC2)N(C)C(=O)C2(CC(C)(C)C2)NC(=O)[C@@H]2C[C@H](C)CN2C(=O)[C@H](CCc2ccc(C(F)(F)F)c(OC)c2)NC(=O)CN(C)C(=O)[C@H](Cc2ccc(C(F)(F)F)cc2)N2CC/C=C\C[C@@H](C2=O)N(C)C(=O)CN(C)C1=O [PP2005] | 9.89 | A (a compound having 10 or more and less than 20 is denoted as A) | A (a compound having 10 or more and less than 20 is denoted as A) | 10.7 |
| CC[C@H](C)[C@@H]1NC(=O)[C@H](C2CC2)N(C)C(=O)C[C@@H](C(=O)N(C)CC)N(C)C(=O)[C@H](C2CCCC2)N(C)C(=O)C2(CC(C)(C)C2)NC(=O)[C@@H]2C[C@H](C)CN2C(=O)[C@H](CCc2ccc(C(F)(F)F)c(OC)c2)NC(=O)CN(C)C(=O)[C@H](Cc2ccc(C(F)(F)F)cc2)N2CC/C=C\C[C@@H](C2=O)N(C)C(=O)CN(C)C1=O [PP2007] | 9.85 | AA (a compound having 20 or more is denoted as AA) | B (a compound having 3 or more and less than 10 is denoted as B) | 14.9 |
| CC[C@H](C)[C@@H]1NC(=O)[C@H](C2CCC2)N(C)C(=O)C[C@@H](C(=O)N(C)CC)N(C)C(=O)[C@H](C2CCCC2)N(C)C(=O)C2(CC(C)(C)C2)NC(=O)[C@@H]2C[C@H](C)CN2C(=O)[C@H](CCc2ccc(C(F)(F)F)c(OC)c2)NC(=O)CN(C)C(=O)[C@H](Cc2ccc(C(F)(F)F)cc2)N2CC/C=C\C[C@@H](C2=O)N(C)C(=O)CN(C)C1=O [PP2009] | 9.72 | A (a compound having 10 or more and less than 20 is denoted as A) | A (a compound having 10 or more and less than 20 is denoted as A) | 19.7 |
| CCCN(C)C(=O)[C@@H]1CC(=O)N(C)[C@@H](CC(F)F)C(=O)N[C@@H]([C@@H](C)CC)C(=O)N(C)CC(=O)N(C)[C@H]2C/C=C\CCN(C2=O)[C@@H](Cc2ccc(C(F)(F)F)cc2)C(=O)N(C)CC(=O)N[C@@H](CCc2ccc(C(F)(F)F)c(OC)c2)C(=O)N2C[C@H](OCC)C[C@H]2C(=O)NC2(CC(C)(C)C2)C(=O)N(C)[C@@H](C2CCCC2)C(=O)N1C [PP2010] | 9.85 | A (a compound having 10 or more and less than 20 is denoted as A) | B (a compound having 3 or more and less than 10 is denoted as B) | 6.6 |
| CC[C@H](C)[C@@H]1NC(=O)[C@H](C2CCC2)N(C)C(=O)C[C@@H](C(=O)N(C)C)N(C)C(=O)[C@H](C2CCCC2)N(C)C(=O)C2(CC(C)(C)C2)NC(=O)[C@@H]2C[C@H](C)CN2C(=O)[C@H](CCc2ccc(C(F)(F)F)c(OC)c2)NC(=O)CN(C)C(=O)[C@H](Cc2ccc(C(F)(F)F)cc2)N2CC/C=C\C[C@@H](C2=O)N(C)C(=O)CN(C)C1=O [PP2011] | 9.96 | A (a compound having 10 or more and less than 20 is denoted as A) | A (a compound having 10 or more and less than 20 is denoted as A) | 10.3 |
| CCCN(C)C(=O)[C@@H]1CC(=O)N(C)[C@@H](COCC)C(=O)N[C@@H]([C@@H](C)CC)C(=O)N(C)CC(=O)N(C)[C@H]2C/C=C\CCN(C2=O)[C@@H](Cc2ccc(C(F)(F)F)cc2)C(=O)N(C)CC(=O)N[C@@H](CCc2ccc(C(F)(F)F)c(OC)c2)C(=O)N2C[C@H](OCC)C[C@H]2C(=O)NC2(CC(C)(C)C2)C(=O)N(C)[C@@H](C2CCCC2)C(=O)N1C [PP2012] | 10.01 | AA (a compound having 20 or more is denoted as AA) | A (a compound having 10 or more and less than 20 is denoted as A) | 11.6 |
| CCCN(C)C(=O)[C@@H]1CC(=O)N(C)[C@@H](CC(F)F)C(=O)N[C@@H]([C@@H](C)CC)C(=O)N(C)CC(=O)N(C)[C@H]2C/C=C\CCN(C2=O)[C@@H](Cc2ccc(C(F)(F)F)cc2)C(=O)N(C)CC(=O)N[C@@H](CCc2ccc(C(F)(F)F)c(OC)c2)C(=O)N2C[C@H](OCC)C[C@H]2C(=O)NC2(CCC2)C(=O)N(C)[C@@H](C2CCCC2)C(=O)N1C [PP2013] | 9.89 | A (a compound having 10 or more and less than 20 is denoted as A) | B (a compound having 3 or more and less than 10 is denoted as B) | 7.7 |
| CCOC[C@H]1C(=O)N[C@@H]([C@@H](C)CC)C(=O)N(C)CC(=O)N(C)[C@H]2C/C=C\CCN(C2=O)[C@@H](Cc2ccc(C(F)(F)F)cc2)C(=O)N(C)CC(=O)N[C@@H](CCc2ccc(C(F)(F)F)c(OC)c2)C(=O)N2C[C@H](OCC)C[C@H]2C(=O)NC2(CC(C)(C)C2)C(=O)N(C)[C@@H](C2CCCC2)C(=O)N(C)[C@H](C(=O)N(C)CC)CC(=O)N1C [PP2014] | 10.03 | A (a compound having 10 or more and less than 20 is denoted as A) | A (a compound having 10 or more and less than 20 is denoted as A) | 6.9 |
| CCCN(C)C(=O)[C@@H]1CC(=O)N(C)[C@@H](COCC)C(=O)N[C@@H]([C@@H](C)CC)C(=O)N(C)CC(=O)N(C)[C@H]2C/C=C\CCN(C2=O)[C@@H](Cc2ccc(C(F)(F)F)cc2)C(=O)N(C)CC(=O)N[C@@H](CCc2ccc(C(F)(F)F)c(OC)c2)C(=O)N2C[C@H](OCC)C[C@H]2C(=O)NC2(CCC2)C(=O)N(C)[C@@H](C2CCCC2)C(=O)N1C [PP2015] | 9.96 | A (a compound having 10 or more and less than 20 is denoted as A) | B (a compound having 3 or more and less than 10 is denoted as B) | 5.6 |
| CCCOC[C@H]1C(=O)N[C@@H]([C@@H](C)CC)C(=O)N(C)CC(=O)N(C)[C@H]2C/C=C\CCN(C2=O)[C@@H](Cc2ccc(C(F)(F)F)cc2)C(=O)N(C)CC(=O)N[C@@H](CCc2ccc(C(F)(F)F)c(OC)c2)C(=O)N2C[C@H](OCC)C[C@H]2C(=O)NC2(CCC2)C(=O)N(C)[C@@H](C2CCCC2)C(=O)N(C)[C@H](C(=O)N(C)CC)CC(=O)N1C [PP2016] | 9.96 | A (a compound having 10 or more and less than 20 is denoted as A) | A (a compound having 10 or more and less than 20 is denoted as A) | 8.2 |
| CCCN(C)C(=O)[C@@H]1CC(=O)N(C)[C@@H](CCOC)C(=O)N[C@@H]([C@@H](C)CC)C(=O)N(C)CC(=O)N(C)[C@H]2C/C=C\CCN(C2=O)[C@@H](Cc2ccc(C(F)(F)F)cc2)C(=O)N(C)CC(=O)N[C@@H](CCc2ccc(C(F)(F)F)c(OC)c2)C(=O)N2C[C@H](OCC)C[C@H]2C(=O)NC2(CCC2)C(=O)N(C)[C@@H](C2CCCC2)C(=O)N1C [PP2018] | 10.00 | A (a compound having 10 or more and less than 20 is denoted as A) | B (a compound having 3 or more and less than 10 is denoted as B) | 5.3 |
